# Measured values: US10093683B2, “Factor XIa inhibitors” (Merck Sharp & Dohme Corp., priority 2014, dated 2018)
# Where two headings read alike, the source gives them in different places.
# What was measured:
# human Factor XIa = human Factor XIa (Homo sapiens (Human), UniProt P03951); experiment: Factor XIa Assay; type: biochemical; settings: read-out: FXIa Ki
# In short: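 Purified human FXIa (40 pM final) hydrolysing fluorogenic Z-Gly-Pro-Arg-AFC (100 μM) in 50 mM HEPES pH 7.4, 150 mM NaCl, 5 mM CaCl2, 0.1% PEG 8000, at room temperature or 37° C. Initial velocities measured after enzyme–inhibitor equilibration; Ki from Vo/Vi versus [I], assuming competitive inhibition.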
# Human plasma kallikrein = Human plasma kallikrein (Homo sapiens (Human), UniProt P03952); experiment: Kallikrein Assay; type: biochemical; settings: purified Human plasma kallikrein 0.5 nM, Acetyl-K-P-R-AFC, pH 7.4; Ki from IC50 by Cheng Prusoff
# Chain of Human plasma kallikrein (P03952 391-638): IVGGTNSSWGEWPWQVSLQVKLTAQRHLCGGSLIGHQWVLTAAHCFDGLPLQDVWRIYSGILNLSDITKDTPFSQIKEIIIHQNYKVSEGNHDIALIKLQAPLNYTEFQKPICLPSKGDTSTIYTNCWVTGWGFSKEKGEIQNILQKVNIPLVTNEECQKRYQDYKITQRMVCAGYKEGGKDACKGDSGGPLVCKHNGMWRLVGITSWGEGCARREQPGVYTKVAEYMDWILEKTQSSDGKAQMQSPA
# Chain of Human plasma kallikrein (P03952 20-390 partner): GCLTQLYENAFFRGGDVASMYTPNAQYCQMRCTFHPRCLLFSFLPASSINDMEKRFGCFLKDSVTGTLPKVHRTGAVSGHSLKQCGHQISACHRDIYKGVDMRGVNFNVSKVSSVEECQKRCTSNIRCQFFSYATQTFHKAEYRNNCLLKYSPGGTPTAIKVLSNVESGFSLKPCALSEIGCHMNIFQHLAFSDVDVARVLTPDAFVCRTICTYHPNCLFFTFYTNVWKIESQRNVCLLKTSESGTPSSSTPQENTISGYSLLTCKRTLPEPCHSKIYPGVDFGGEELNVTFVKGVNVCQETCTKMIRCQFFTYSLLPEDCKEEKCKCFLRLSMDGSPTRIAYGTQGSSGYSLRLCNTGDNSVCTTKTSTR
# In short: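 Purified human plasma kallikrein (0.5 nM final) with Acetyl-K-P-R-AFC substrate ([…]) in 50 mM HEPES pH 7.4, 150 mM NaCl, 5 mM CaCl2, 0.1% PEG 8000, after enzyme-inhibitor equilibration. Fluorescence (405 ex/510 em) under linear conditions; IC50 from four-parameter fit, converted to Ki by Cheng-Prusoff.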
# [1] = purified human Factor XIa 40 pM, Z-Gly-Pro-Arg-AFC 100 μM, pH 7.4
# Chain of human Factor XIa (P03951 388-625): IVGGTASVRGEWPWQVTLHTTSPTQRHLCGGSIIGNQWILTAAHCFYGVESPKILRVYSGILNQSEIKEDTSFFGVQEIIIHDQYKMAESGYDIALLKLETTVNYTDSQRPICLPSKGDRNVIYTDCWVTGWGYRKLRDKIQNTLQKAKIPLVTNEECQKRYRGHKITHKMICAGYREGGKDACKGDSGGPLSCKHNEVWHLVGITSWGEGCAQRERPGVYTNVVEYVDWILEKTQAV
# Chain of human Factor XIa (P03951 19-387 partner): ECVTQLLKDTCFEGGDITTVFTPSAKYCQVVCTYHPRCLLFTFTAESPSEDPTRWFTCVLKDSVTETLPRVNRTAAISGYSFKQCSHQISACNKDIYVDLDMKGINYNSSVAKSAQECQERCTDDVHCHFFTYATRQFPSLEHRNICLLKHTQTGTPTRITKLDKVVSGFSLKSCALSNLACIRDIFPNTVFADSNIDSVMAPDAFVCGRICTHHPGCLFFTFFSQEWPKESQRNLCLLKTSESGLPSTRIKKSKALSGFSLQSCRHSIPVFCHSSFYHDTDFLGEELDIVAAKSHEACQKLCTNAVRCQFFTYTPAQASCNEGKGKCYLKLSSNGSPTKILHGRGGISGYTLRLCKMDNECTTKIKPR
Ki (human Factor XIa; [1]) [nM],Ki (Human plasma kallikrein) [nM],Ki (human Factor XIa) [nM],SMILES
10.2,4.92,,"COC(=O)Nc1ccc(C(=O)N[C@@H](CC(C)(C)OC)C(=O)N2CCC[C@@]3(C2)OC(=O)Nc2ccc(Cl)c(F)c23)cc1 [Example 119, methyl (4-(((2S)-1-(6-chloro-5-fluoro-2-oxo-1,2-dihydrospiro[benzo[d][1,3]oxazine-4,3′-piperidin]-1′-yl)-4-methoxy-4-methyl-1-oxopentan-2-yl)carbamoyl)phenyl)carbamate]"
15.1,4.65,,"O=C1Nc2ccc(Cl)c(F)c2[C@@]2(CCCN(C(=O)C(Cc3ccccc3)c3ncc(-c4ccc(C(=O)O)s4)[nH]3)C2)O1 (stereo partly drawn) [Example 123, 5-(2-(1-((R)-6-chloro-5-fluoro-2-oxo-1,2-dihydrospiro[benzo[d][1,3]oxazine-4,3′-piperidin]-1′-yl)-1-oxo-3-phenylpropan-2-yl)-1H-imidazol-5-yl)thiophene-2-carboxylic acid]"
,2.63,1250,"COC(=O)Nc1cccc(C(=O)N[C@@H](Cc2ccccc2)C(=O)N2CCC3(C2)OC(=O)Nc2ccc(Cl)cc23)c1 (stereo partly drawn) [Example 143, methyl (3-(((2S)-1-(6-chloro-2-oxo-1,2-dihydrospiro[benzo[d][1,3]oxazine-4,3′-pyrrolidin]-1′-yl)-1-oxo-3-phenylpropan-2-yl)carbamoyl)phenyl)carbamate]"
,7.72,5000,Cc1ncc(C(=O)N[C@@H](Cc2ccccc2)C(=O)N2CCC3(C2)OC(=O)Nc2ccc(Cl)cc23)cn1 (stereo partly drawn) [Example 144]
,36,9.4,"COCCOC(=O)Nc1ccc(C(=O)N[C@@H](Cc2ccccc2)C(=O)N2CCC3(C2)OC(=O)Nc2ccc(Cl)cc23)cc1 (stereo partly drawn) [Example 164, 2-methoxyethyl (4-(((2S)-1-(6-chloro-2-oxo-1,2-dihydrospiro[benzo[d][1,3]oxazine-4,3′-pyrrolidin]-1′-yl)-1-oxo-3-phenylpropan-2-yl)carbamoyl)phenyl)carbamate]"
,27.5,14.6,O=C1CSc2cc(C(=O)N[C@@H](Cc3ccccc3)C(=O)N3CCC4(C3)OC(=O)Nc3ccc(Cl)cc34)ccc2N1 (stereo partly drawn) [Example 165]
,58,21.8,O=C1COc2cc(C(=O)N[C@@H](Cc3ccccc3)C(=O)N3CCC4(C3)OC(=O)Nc3ccc(Cl)cc34)ccc2N1 (stereo partly drawn) [Example 171]
,50.7,18.7,Nc1nc2ccc(C(=O)N[C@@H](Cc3ccccc3)C(=O)N3CCC4(C3)OC(=O)Nc3ccc(Cl)cc34)cc2s1 (stereo partly drawn) [Example 181]
,155,42,O=C1Nc2ccc(Cl)cc2C2(CCN(C(=O)[C@H](Cc3ccccc3)NC(=O)c3ccc(Nc4ncc[nH]4)cc3)C2)O1 (stereo partly drawn) [Example 188]
,51.3,17.6,"CNC(=O)Nc1ccc(C(=O)N[C@@H](Cc2ccccc2)C(=O)N2CCC3(C2)OC(=O)Nc2ccc(Cl)cc23)cc1 (stereo partly drawn) [Example 189, N-((2S)-1-(6-chloro-2-oxo-1,2-dihydrospiro[benzo[d][1,3]oxazine-4,3′-pyrrolidin]-1′-yl)-1-oxo-3-phenylpropan-2-yl)-4-(3-methylureido)benzamide]"
,123,33.5,"O=C(Nc1ccc(C(=O)N[C@@H](Cc2ccccc2)C(=O)N2CCC3(C2)OC(=O)Nc2ccc(Cl)cc23)cc1)OCCN1CCOCC1 (stereo partly drawn) [Example 191, 2-morpholinoethyl (4-(((2S)-1-(6-chloro-2-oxo-1,2-dihydrospiro[benzo[d][1,3]oxazine-4,3′-pyrrolidin]-1′-yl)-1-oxo-3-phenylpropan-2-yl)carbamoyl)phenyl)carbamate]"
,30.9,5.48,"O=C(Nc1ccc(C(=O)N[C@@H](Cc2ccccc2)C(=O)N2CCC3(C2)OC(=O)Nc2ccc(Cl)cc23)cc1)OC[C@@H]1CCCO1 (stereo partly drawn) [Example 194, ((S)-tetrahydrofuran-2-yl)methyl (4-(((2S)-1-(6-chloro-2-oxo-1,2-dihydrospiro[benzo[d][1,3]oxazine-4,3′-pyrrolidin]-1′-yl)-1-oxo-3-phenylpropan-2-yl)carbamoyl)phenyl)carbamate]"
,1.9,1,Nc1n[nH]c2cc(C(=O)N[C@@H](Cc3ccccc3)C(=O)N3CC[C@@]4(C3)OC(=O)Nc3ccc(Cl)c(F)c34)ccc12 [Example 195]
,1.3,0.62,Nc1n[nH]c2cc(C(=O)N[C@@H](Cc3ccccc3)C(=O)N3CCC[C@@]4(C3)OC(=O)Nc3ccc(Cl)cc34)ccc12 [Example 197]
,30.1,2.77,O=C1Nc2ccc(Cl)cc2[C@@]2(CCN(C(=O)[C@H](Cc3ccccc3)NC(=O)c3ccc4[nH]c(=O)c(=O)[nH]c4c3)C2)O1 [Example 198]
,0.6,0.6,O=C1Nc2ccc(Cl)cc2[C@@]2(CCCN(C(=O)[C@H](Cc3ccccc3)NC(=O)c3ccc4[nH]c(=O)cc(O)c4c3)C2)O1 [Example 199]
,1,4.4,Nc1n[nH]c2cc(C(=O)N[C@@H](CC3CC3)C(=O)N3CCC[C@@]4(C3)OC(=O)Nc3ccc(Cl)cc34)ccc12 [Example 200]
,2.1,10.3,O=C1Nc2ccc(Cl)cc2[C@@]2(CCCN(C(=O)[C@H](Cc3ccccc3)NC(=O)c3ccc(C(=O)O)s3)C2)O1 [Example 203]
,1.7,14.5,CNc1cc(C(=O)N[C@@H](Cc2ccccc2)C(=O)N2CCC[C@@]3(C2)OC(=O)Nc2ccc(Cl)cc23)ccn1 [Example 206]
,1.95,1.63,"Nc1ccc(C(=O)N[C@@H](Cc2ccc(F)cc2)C(=O)N2CCC[C@@]3(C2)OC(=O)Nc2ccc(Cl)cc23)cc1C(=O)O [Example 208, 2-amino-5-(((S)-1-((R)-6-chloro-2-oxo-1,2-dihydrospiro[benzo[d][1,3]oxazine-4,3′-piperidin]-1′-yl)-3-(4-fluorophenyl)-1-oxopropan-2-yl)carbamoyl)benzoic acid]"
,0.33,0.11,O=C1Nc2ccc(Cl)c(F)c2[C@@]2(CCCN(C(=O)[C@H](Cc3ccccc3)NC(=O)c3ccc4[nH]c(=O)cc(O)c4c3)C2)O1 [Example 209]
,0.54,10.4,O=C1Nc2ccc(Cl)c(F)c2[C@@]2(CCCN(C(=O)[C@H](CC3CC3)NC(=O)c3ccc4[nH]c(=O)[nH]c4c3)C2)O1 [Example 213]
,1.4,0.7,O=C1Nc2ccc(Cl)c(F)c2[C@@]2(CCCN(C(=O)[C@H](CC3CC3)NC(=O)c3ccc4[nH]nc(O)c4c3)C2)O1 [Example 214]
,2.6,13.8,O=C1Nc2ccc(Cl)c(F)c2[C@@]2(CCCN(C(=O)[C@H](CC3CC3)NC(=O)c3ccc4c(O)n[nH]c4c3)C2)O1 [Example 215]
,1.7,37.6,O=C1Nc2ccc(Cl)c(F)c2[C@@]2(CCCN(C(=O)[C@H](CC3CC3)NC(=O)c3cc4cc(O)ccc4[nH]3)C2)O1 [Example 216]
,0.95,0.4,Nc1n[nH]c2cc(C(=O)N[C@@H](Cc3ccccc3)C(=O)N3CCCC4(C3)OC(=O)Nc3ccc(Cl)c(F)c34)ccc12 (stereo partly drawn) [Example 225]

SMILES,Ki (human Factor XIa; [1]) [nM],Ki (Human plasma kallikrein) [nM],Ki (human Factor XIa) [nM]
Nc1noc2cc(C(=O)N[C@@H](Cc3ccccc3)C(=O)N3CC[C@@]4(C3)OC(=O)Nc3ccc(Cl)cc34)ccc12 [Example 217],,3.2,2.3
